Key:
Test in all cases: Test B pre-/postemergence plant response
Format in all cases: in vivo
[1] = test system: large crabgrass (Digitaria sanguinalis); conditions: for Crabgrass, Large plant response rating: 8 g ai/ha
Summary of the method: (§1)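 Preemergence and postemergence (plants 2-18 cm, 1- to 4-leaf stage) applications used test chemicals in a non-phytotoxic solvent with surfactant. Plants were held in a greenhouse 13 to 15 days, then rated visually against controls on a 0-100 scale (0 no effect, 100 complete control).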

[2] = test system: downy bromegrass (Bromus tectorum); conditions: for Bromegrass, Downy plant response rating: 8 g ai/ha
Summary of the method: as §1

[3] = test system: bermudagrass (Cynodon dactylon); conditions: for Bermudagrass plant response rating: 8 g ai/ha
Summary of the method: as §1

[4] = test system: velvetleaf (Abutilon theophrasti); conditions: for Velvetleaf plant response rating: 8 g ai/ha
Summary of the method: as §1

[5] = test system: morningglory (Ipomoea coccinea); conditions: for Morningglory plant response rating: 8 g ai/ha
Summary of the method: as §1

[6] = test system: common (oilseed) sunflower (Helianthus annuus); conditions: Preemergence
Summary of the method: as §1

[7] = test system: catchweed bedstraw (Galium aparine); conditions: Preemergence
Summary of the method: as §1

[8] = test system: green foxtail (Setaria viridis); conditions: for Foxtail, Green plant response rating: 8 g ai/ha
Summary of the method: as §1

[9] = test system: blackgrass (Alopecurus myosuroides); conditions: for Blackgrass plant response rating: 8 g ai/ha
Summary of the method: as §1

[10] = test system: lambsquarters (Chenopodium album)
Summary of the method: as §1

corn (Zea mays) = conditions: for Corn plant response rating: 8 g ai/ha
Summary of the method: as §1

wild oat (Avena fatua) = conditions: for Oat, Wild plant response rating: 8 g ai/ha
Summary of the method: as §1

[11] = test system: giant foxtail (Setaria faberii); conditions: for Foxtail, Giant plant response rating: 8 g ai/ha
Summary of the method: as §1

[12] = test system: wheat (Triticum aestivum); conditions: for Wheat plant response rating: 8 g ai/ha
Summary of the method: as §1

[13] = Postemergence, 16 g ai/ha, scale 0 to 100
[14] = Postemergence, 31 g ai/ha, scale 0 to 100, 0 no effect, 100 complete control
[15] = Postemergence, 62 g ai/ha, scale 0 to 100
[16] = Preemergence, 16 g ai/ha, scale 0 to 100 (0 no effect, 100 complete control)
[17] = Preemergence, 31 g ai/ha, 0 to 100 scale, 0 no effect, 100 complete control
[18] = Preemergence, 62 g ai/ha, scale 0 to 100
[19] = 31 g ai/ha, 0 to 100 scale, 0 no effect, 100 complete control

## CCc1cc(-c2ccc(C(F)(F)F)cc2)nn1-c1c(OS(C)(=O)=O)cnn(C)c1=O [Compound 19]
[1]; postemergence, 0-100 scale
  Crabgrass, Large plant response rating: 80
[1]; [13]
  Plant response rating, Crabgrass, Large: 85
[1]; [14]
  Plant response rating, Crabgrass, Large: 95
[1]; [15]
  Plant response rating, Crabgrass, Large: 100
[1]; [16]
  Plant response rating, Crabgrass, Large: 100
[1]; [17]
  Plant response rating, Crabgrass, Large: 100
[1]; [18]
  Plant response rating, Crabgrass, Large: 100
[1]; Preemergence, scale 0 to 100
  Crabgrass, Large plant response rating: 50
[2]; postemergence, 0-100 scale
  Bromegrass, Downy plant response rating: 10
[2]; [13]
  Plant response rating, Bromegrass, Downy: 75
[2]; [14]
  Plant response rating, Bromegrass, Downy: 75
[2]; [15]
  Plant response rating, Bromegrass, Downy: 90
[2]; [16]
  Plant response rating, Bromegrass, Downy: 0
[2]; [17]
  Plant response rating, Bromegrass, Downy: 30
[2]; [18]
  Plant response rating, Bromegrass, Downy: 60
[2]; Preemergence, scale 0 to 100
  Bromegrass, Downy plant response rating: 0
[3]; postemergence, 0-100 scale
  Bermudagrass plant response rating: 80
[3]; [13]
  Plant response rating, Bermudagrass: 100
[3]; [14]
  Plant response rating, Bermudagrass: 100
[3]; [15]
  Plant response rating, Bermudagrass: 100
[3]; Preemergence, scale 0 to 100 (0 no effect, 100 complete control)
  Bermudagrass plant response rating: 0
[3]; [16]
  Plant response rating, Bermudagrass: 90
[3]; [17]
  Plant response rating, Bermudagrass: 98
[3]; [18]
  Plant response rating, Bermudagrass: 100
[4]; postemergence, 0-100 scale
  Velvetleaf plant response rating: 0
[4]; [13]
  Plant response rating, Velvetleaf: 0
[4]; [14]
  Plant response rating, Velvetleaf: 0
[4]; [15]
  Plant response rating, Velvetleaf: 0
[4]; [16]
  Plant response rating, Velvetleaf: 0
[4]; [17]
  Plant response rating, Velvetleaf: 0
[4]; [18]
  Plant response rating, Velvetleaf: 0
[4]; Preemergence, scale 0 to 100
  Velvetleaf plant response rating: 0
[5]; postemergence, 0-100 scale
  Morningglory plant response rating: 0
[5]; [13]
  Plant response rating, Morningglory: 0
[5]; [14]
  Plant response rating, Morningglory: 0
[5]; [15]
  Plant response rating, Morningglory: 0
[5]; [16]
  Plant response rating, Morningglory: 0
[5]; [17]
  Plant response rating, Morningglory: 0
[5]; [18]
  Plant response rating, Morningglory: 0
[5]; Preemergence, scale 0 to 100
  Morningglory plant response rating: 0
[6]; 16 g ai/ha, scale 0 to 100 (0 no effect, 100 complete control)
  Plant response rating, Sunflower: 0
[6]; [19]
  Plant response rating, Sunflower: 0
[6]; 62 g ai/ha, scale 0 to 100
  Plant response rating, Sunflower: 0
[6]; 8 g ai/ha, scale 0 to 100
  Sunflower plant response rating: 0
[7]; [19]
  Plant response rating, Galium: 0
[7]; 62 g ai/ha, scale 0 to 100
  Plant response rating, Galium: 0
[7]; 8 g ai/ha, scale 0 to 100
  Galium plant response rating: 0
[8]; postemergence, 0-100 scale
  Foxtail, Green plant response rating: 60
[8]; [13]
  Plant response rating, Foxtail, Green: 100
[8]; [14]
  Plant response rating, Foxtail, Green: 100
[8]; [15]
  Plant response rating, Foxtail, Green: 100
[8]; [16]
  Plant response rating, Foxtail, Green: 100
[8]; [17]
  Plant response rating, Foxtail, Green: 100
[8]; [18]
  Plant response rating, Foxtail, Green: 100
[8]; Preemergence, scale 0 to 100
  Foxtail, Green plant response rating: 85
[9]; postemergence, 0-100 scale
  Blackgrass plant response rating: 80
[9]; [13]
  Plant response rating, Blackgrass: 85
[9]; [14]
  Plant response rating, Blackgrass: 90
[9]; [15]
  Plant response rating, Blackgrass: 95
[9]; [16]
  Plant response rating, Blackgrass: 100
[9]; [17]
  Plant response rating, Blackgrass: 100
[9]; [18]
  Plant response rating, Blackgrass: 100
[9]; Preemergence, scale 0 to 100
  Blackgrass plant response rating: 95
[10]; 8 g ai/ha, postemergence, 0-100 scale
  Lambsquarters plant response rating: 0
[10]; [13]
  Plant response rating, Lambsquarters: 0
[10]; [14]
  Plant response rating, Lambsquarters: 0
[10]; [15]
  Plant response rating, Lambsquarters: 0
[10]; [16]
  Plant response rating, Lambsquarters: 0
[10]; [17]
  Plant response rating, Lambsquarters: 0
[10]; [18]
  Plant response rating, Lambsquarters: 40
Corn (Zea mays); postemergence, 0-100 scale
  Corn plant response rating: 0
Corn (Zea mays); [13]
  Plant response rating, Corn: 0
Corn (Zea mays); [14]
  Plant response rating, Corn: 0
Corn (Zea mays); [15]
  Plant response rating, Corn: 95
Corn (Zea mays); [16]
  Plant response rating, Corn: 85
Corn (Zea mays); [17]
  Plant response rating, Corn: 95
Corn (Zea mays); [18]
  Plant response rating, Corn: 98
Corn (Zea mays); Preemergence, scale 0 to 100
  Corn plant response rating: 70
Wild oat (Avena fatua); postemergence, 0-100 scale
  Oat, Wild plant response rating: 90
Wild oat (Avena fatua); [13]
  Plant response rating, Oat, Wild: 98
Wild oat (Avena fatua); [14]
  Plant response rating, Oat, Wild: 100
Wild oat (Avena fatua); [15]
  Plant response rating, Oat, Wild: 100
Wild oat (Avena fatua); [16]
  Plant response rating, Oat, Wild: 75
Wild oat (Avena fatua); [17]
  Plant response rating, Oat, Wild: 95
Wild oat (Avena fatua); [18]
  Plant response rating, Oat, Wild: 95
Wild oat (Avena fatua); Preemergence, scale 0 to 100
  Oat, Wild plant response rating: 60
[11]; postemergence, 0-100 scale
  Foxtail, Giant plant response rating: 95
[11]; [13]
  Plant response rating, Foxtail, Giant: 100
[11]; [14]
  Plant response rating, Foxtail, Giant: 100
[11]; [15]
  Plant response rating, Foxtail, Giant: 100
[11]; [16]
  Plant response rating, Foxtail, Giant: 100
[11]; [17]
  Plant response rating, Foxtail, Giant: 100
[11]; [18]
  Plant response rating, Foxtail, Giant: 100
[11]; Preemergence, scale 0 to 100
  Foxtail, Giant plant response rating: 70
[12]; postemergence, 0-100 scale
  Wheat plant response rating: 0
[12]; [13]
  Plant response rating, Wheat: 60
[12]; [14]
  Plant response rating, Wheat: 85
[12]; [15]
  Plant response rating, Wheat: 98
[12]; [16]
  Plant response rating, Wheat: 10
[12]; [17]
  Plant response rating, Wheat: 90
[12]; [18]
  Plant response rating, Wheat: 95
[12]; Preemergence, scale 0 to 100
  Wheat plant response rating: 0

Source: US20100267561A1, “HERBICIDAL PYRIDAZINONE DERIVATIVES” (priority 2007, published 2010)
